Holding throughout (assay type): cell-based, mouse
For one data set, the system named is c-Fos. Description: Q-PCR of osteoclast marker gene: c-Fos. Conditions: RANKL 100 ng/ml, M-CSF 30 ng/ml, 5 days.
Data set [1] concerns osteoclasts [破骨细胞]. Briefly: TRAP staining: RANKL-induced osteoclast differentiation from BMMs. Particulars: RANKL induction 5 days, 0, 1, 2.5, 5, 10 μM NCTD.
The test system of a further data set is CTR. Briefly: Q-PCR of osteoclast marker gene: CTR. Particulars: RANKL 100 ng/ml, M-CSF 30 ng/ml, 5 days.
The test system of data set [2] is BMM cells [BMMs]. Briefly: MTT assay of the effect of NCTD on viability of bone-marrow-derived macrophages. In general terms: Formazan colour is commonly taken as a measure of viable cells.
Assay in data set [3]: as above
Conditions: mouse, bone marrow macrophages; MTT, BMMs, 48 h; read-out: concentration from which BMM activity begins to be affected.

Data set [4] concerns osteoclasts [破骨细胞]. Description: TRAP staining: stage of osteoclast formation inhibited by NCTD. Particulars: 5 μM NCTD.
A further data set has as its system IκBα. Briefly: IκBα degradation (NF-κB signalling pathway).
The test system of the next data set is NFATc1. Description: Q-PCR of osteoclast marker gene: NFATc1. Conditions: RANKL 100 ng/ml, M-CSF 30 ng/ml, 5 days.
For a further data set, the system named is CTSK. Description: Q-PCR of osteoclast marker gene: CTSK. Particulars: RANKL 100 ng/ml, M-CSF 30 ng/ml, 5 days.
Data set [5] relates to BMM cells [BMMs]. Briefly: Annexin V-FITC/PI flow cytometry: apoptosis of BMMs. Conditions: BMMs, 0, 2.5, 5, 10 μM NCTD, 48 h. For orientation: In flow cytometry, cells or beads pass a laser one at a time.
Data set [6] concerns extracellular signal-regulated kinase (ERK) [细胞外信号调节激酶(ERK)]. Briefly: Western blot: RANKL-stimulated ERK phosphorylation. Conditions: BMMs, RANKL 15 min; 0, 2.5, 5, 10 μM NCTD.
The test system of data set [7] is c-Jun N-terminal kinase (JNK) [c-Jun氨基端激酶(JNK)]. Briefly: Western blot: JNK (MAPK family). Conditions: BMMs. A general note: In western blotting, separated proteins are transferred to a membrane and probed.
The next data set relates to p38 kinase [p38激酶]. Description: Western blot: RANKL-stimulated p38 phosphorylation. Conditions: BMMs, RANKL 15 min; 0, 2.5, 5, 10 μM NCTD.
In the next data set the test system is TRAP. Description: Q-PCR of osteoclast marker gene: TRAP. Conditions: RANKL 100 ng/ml, M-CSF 30 ng/ml, 5 days.
Where [8] appears, read: pretreatment (12 h before RANKL).

Results on one molecule are retold here after patent CN108992440A, “去甲斑蝥素在制备治疗破骨细胞过度激活相关疾病药物中的应用” (priority 2018, dated 2018).

As for `O=C1OC(=O)C2C3CCC(O3)C12` (stereo not shown) [NCTD, 去甲斑蝥素], the c-Fos expression result in the data set with c-Fos is listed as “浓度依赖地抑制”. Besides, the “osteoclast formation (osteoclast number and area)” value with osteoclasts [破骨细胞] [1] was “能够明显抑制破骨细胞的生成,且呈剂量依赖性关系”. Further, the CTR expression result with CTR is recorded as “浓度依赖地抑制”. Further, the IC50 in the data set on BMM cells [BMMs] [2] (Mus musculus, Macrophage, MTT, BMMs, 48 h, 0-320 μM NCTD, GraphPad Prism, read-out: half-inhibitory concentration (IC50) on BMMs) was 59.7 µM. Besides, in the data set with BMM cells [BMMs] [2] (at 10 μM and below), the “toxicity to BMM cells” value was “无毒性作用”. For the same molecule, the MCC at 48 h in data set [3] amounted to 20 µM. Also, the “osteoclast number and area” value with osteoclasts [破骨细胞] [4] (early treatment (first 2 days of induction)) is recorded as “能够显著改变破骨细胞数量和面积”. Further, the osteoclast area entry in the data set with osteoclasts [破骨细胞] [4] (late treatment (last 3 days of induction)) is recorded as “对破骨细胞面积没有明显影响”. Further, in the data set on osteoclasts [破骨细胞] [4] (setting [8]), the osteoclast formation entry is listed as “在一定程度上可抑制破骨细胞形成”; the “osteoclast number and size vs control” value is recorded as “均有明显差异”. The “inhibition of osteoclast differentiation” value in the data set with osteoclasts [破骨细胞] [4] (pretreatment + whole-course treatment) is recorded as “对破骨细胞分化抑制最为明显”. The “inhibition of osteoclast differentiation” value in the data set with osteoclasts [破骨细胞] [4] (whole-course treatment (5 days)) is “对破骨细胞分化抑制最为明显”. In addition, in the data set with IκBα (BMMs, RANKL-stimulated), the IκBα degradation result was “没有抑制IκBα的降解”. In addition, the “RANKL-activated NF-κB signalling pathway” value in the data set on IκBα (by IκBα degradation) is “没有明显影响”. The NFATc1 expression result in the data set with NFATc1 is on record as “浓度依赖地抑制”. Moreover, the CTSK expression result with CTSK is recorded as “浓度依赖地抑制”. Moreover, in the data set with BMM cells [BMMs] [5], the apoptosis entry is reported as “不会引起细胞凋亡”. Moreover, in data set [6], the ERK phosphorylation result is on record as “明显受到抑制”. Further, the “inhibition of JNK” value in data set [7] (RANKL 15 min, 0, 2.5, 5, 10 μM NCTD) is reported as “没有明显抑制作用”. In data set [7] (RANKL-stimulated), the JNK phosphorylation result is reported as “没有影响”. In addition, the p38 phosphorylation result in the data set with p38 kinase [p38激酶] was “明显受到抑制”. In addition, the TRAP expression result in the data set with TRAP is recorded as “浓度依赖地抑制”.
